Entries after “also recorded” stand apart in the source; their conditions may differ.
Legend:
[1] = tested on: Col4a3−/− mice; test: Mesangial expansion (PAS) and renal fibrosis (Picrosirius Red) in Col4a3-/- mice (Example 3, FIG. 6); type: in vivo, mouse; settings: treated vs untreated Col4a3−/− mice; ezetimibe 5 mg/kg, ramipril 10 mg/kg, 4 weeks
Protocol: Assessment of mesangial expansion: Periodic acid-Schiff (PAS) staining of 4 μm-thick tissue sections was performed using a standard protocol. Twenty glomeruli per section were analyzed for mesangial expansion by semi quantitative analysis (scale 0-4) performed by two blinded independent investigators.
Picrosirius red staining: Paraffin-embedded sections (4 μm thick) were deparaffinized with xylene and a graded alcohol series. Sections were rinsed for 5 min in distilled water, stained for 1 hour with picrosirius red in saturated aqueous picric acid, examined under a light microscope and photomicrographs were taken. Histological images were visualized using a light microscope (Olympus BX 41, Tokyo, Japan) at 40× magnification and analyzed using Image J software.
The following experiment was performed to investigate which treatment, ezetimibe (EZ), ramipril (Ramp) or the combination of both drugs (EZ+Ramp), would best preserve renal function in Col4a3 knockout mice, all drugs were administered to 4-week-old Col4a3−/− mice for 4 weeks as follows: ezetimibe (Ez) was orally administered at a concentration of 5 mg/kg BW, ramipril was added to the drinking water at a concentration that would lead to a daily ramipril uptake of 10 mg/kg BW. All mice were sacrificed at 8 weeks of age. The following four groups of mice were analyzed: Col4a3^+/+, Col4a3^−/−+Ez, Col4a3^−/−+Ramp and Col4a3^−/−+Ez+Ramp.
PAS staining was performed to detect and quantify mesangial expansion, Picrossirius Red staining to detect and quantify renal fibrosis in treated compared to untreated Col4a3^−/− mice. […] Representative images for PAS staining are shown in FIG. 6A and of Picrosirius Red staining to detect fibrosis in […]. Bar graph quantifications for both are shown in FIGS. 6C and 6D, respectively.

[2] = tested on: Col4a3 knockout mice; test: Renal function and body weight in Col4a3 knockout mice treated with ezetimibe (FIG. 3); type: in vivo, mouse
Protocol: Mouse models: Mice in which exon 5 of a3 chain of collagen type IV is deleted (Col4a3 KO) were obtained from the Jackson Laboratory (#002908, 129-Col4a3tm1Dec/J). Col4a3 heterozygous littermates were bred to generate Col4a3 KO mice. Four groups of mice with n=3-10 per group were studied. The four groups consisted of: 1) wildtype controls+vehicle, 2) wildtype controls+ezetimibe, 3) Col4a3 KO+vehicle, 4) Col4a3 KO+ezetimibe. ezetimibe was administered by oral gavage daily starting at 4 weeks of age at a concentration of 5 mg/kg body weight. […] Mice were sacrificed at 8 weeks of age when progression to end-stage renal failure had occurred.
Albumin/creatinine ratio: All albuminuria values are expressed as μg albumin/mg creatinine. Albumin/creatinine determined by ELISA (Bethyl Laboratories) for albumin detection and a biochemical assay based on the Jaffe method for creatinine detection (Stanbio) as previously described.
Serology: Immediately prior to sacrifice, a blood sample was collected for the determination of BUN and lipid panel analysis in the comparative laboratory core facility of the University of Miami. Serum creatinine was determined by tandem mass spectrometry (UAB-UCSD O'Brien Core Center, University of Alabama).

[3] = tested on: Col4a3−/− mice; test: Renal cortex lipid content in Col4a3-/- mice (Example 4, FIG. 7); type: in vivo, mouse; settings: for triglyceride (TG) content in kidney cortexes: treated vs untreated Col4a3−/− mice, ezetimibe 5 mg/kg, ramipril 10 mg/kg, 4 weeks
Protocol: Determination of cholesterol content in kidney cortex: Tissue from kidney cortexes was homogenized in hypotonic buffer (10 mM HEPES pH7.0, 15 mM KCl, 1 mM MgCl2, 10 mM phosphatase inhibitors). Lipids from 100 μl of the homogenate were extracted with 1 ml of hexane:isopropanol (3:2, v/v), dried and reconstituted in 100 μl of isopropanol-NP40 (9:1, v/v). Tissue fractions not soluble in the organic solvent, were further dried, reconstituted in 8 M urea, and assayed for protein concentration using Pierce BCA protein assay kit (ThermoFisher Scientific, MA, USA). Total cholesterol from lipid extracts was determined by the enzymatic method as previously described (Robinet, P., Wang, Z., Hazen, S. L. & Smith, J. D. A simple and sensitive enzymatic method for cholesterol quantification in macrophages and foam cells. Journal of lipid research 51, 3364-3369, 2010). Briefly, endogenous peroxides present were eliminated by incubating samples and standards with catalase (Sigma-Aldrich, MO, USA), 45 U/ml final concentration, for 15 min at 37° C. […] The plates were incubated at 37° C. for 30 min and fluorescence was read at 530 nm (Ex) and 580 nm (Em) in a plate reader (SpectraMax M5, Molecular Devices, CA, USA). Cholesteryl esters (CE) quantification was based on the method described from Toshimi M, et al. Briefly, 25 μl of samples was mixed with 150 μl of free cholesterol decomposition reagent (45 U/ml catalase, 1 U/ml cholesterol oxidase) and incubated 2-4 h at 37° C., and then the final volume was brought up to 250 μl prior to determining free and total cholesterol remaining. Total cholesterol remaining was determined by mixing 50 μl of end product reaction with 50 μl of reagent A, as described above. Free cholesterol remaining was determined similarly, but without including cholesterol esterase in the reagent. CE was calculated by the formula CE=(TC−FC)×DF, where TC is the total cholesterol remaining, FC the free cholesterol remaining and DF the dilution factor, in this case, 10. Lipid content: Oil Red 0 staining was performed on frozen tissue sections and triglyceride content was determined on snap frozen kidney tissue as described above. The following experiment was performed to investigate which treatment, ezetimibe (EZ), ramipril (Ramp) or the combination of both drugs (EZ+Ramp), would best preserve renal function in Col4a3 knockout mice, all drugs were administered to 4-week-old Col4a3−/− mice for 4 weeks as follows: ezetimibe (Ez) was orally administered at a concentration of 5 mg/kg BW, ramipril was added to the drinking water at a concentration that would lead to a daily ramipril uptake of 10 mg/kg BW. All mice were sacrificed at 8 weeks of age. The following four groups of mice were analyzed: Col4a3^+/+, Col4a3^−/−+Ez, Col4a3^−/−+Ramp and Col4a3^−/−+Ez+Ramp.

[4] = ambient temperature; cited from earlier work
[5] = ezetimibe 5 mg/kg oral gavage daily, sacrifice at 8 weeks

O=C1[C@H](CC[C@H](O)c2ccc(F)cc2)[C@@H](c2ccc(O)cc2)N1c1ccc(F)cc1 [ezetimibe]
mesangial expansion (PAS staining, score) [1]: significant reduction; also recorded: significantly reduced mesangial expansion
renal fibrosis (Picrosirius Red staining) [1]: significant reduction; also recorded: significantly reduced
body weight ([2]; ezetimibe 5 mg/kg oral gavage daily): prevents body weight loss
albumin/creatinine ratio ([2]; ezetimibe 5 mg/kg oral gavage daily from 4 weeks of age, vs untreated Col4a3 knockout mice): significant reduction in the albumin/creatinine ratio
serum BUN levels [2, 5]: prevents increases in serum BUN levels
serum creatinine levels [2, 5]: significantly reduces serum creatinine levels
total cholesterol content (kidney cortexes) ([3]; ezetimibe only treated Col4a3−/− mice): no effect on the total cholesterol content
triglyceride (TG) content in kidney cortexes [3]: significantly decreased
triglyceride (TG) content in kidney cortexes ([3]; listed as ezetemibe): significantly decreased renal triglyceride content
stability [4]: stable

From patent publication US20210186930A1, “Methods of Treating Renal Disease Associated With Chronic Kidney Disease Such as Alport Syndrome” (UNIVERSITY OF MIAMI, priority 2018, published 2021)
